{
  "source": "patent EP3928779A1",
  "about": "(Chugai Seiyaku Kabushiki Kaisha, priority 2014, dated 2016)",
  "data": [
    {"tested_on": "rat small-intestinal brush border membrane vesicles", "assay": "Inhibitory effect on 33PO4 uptake into rat small-intestinal brush border membrane vesicles (rapid filtration method)", "type": "biochemical", "details": "33PO4 uptake into rat small-intestinal BBMVs; test compound 1 µM; reacted for 60 seconds", "how_it_was_run": "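Uptake of ^33PO4 was measured by rapid filtration and liquid scintillation counting of filter-retained vesicles, after quenching with ice-cold 110 mM NaCl/1 mM KH2PO4/10 mM HEPES pH 7.5. Vesicles were brush border membranes from the upper small intestine of female Wistar rats aged 4–5 weeks.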", "units": {"Rate of uptake inhibition (%) (1 µM)": "%"}, "values": [
      {"smiles": "CN1N(Cc2cccc(F)c2F)C(=O)C(C(=O)Nc2ccc(Br)c(C(F)(F)F)n2)=C(O)C12CCC2", "note": "[Example 258]", "Rate of uptake inhibition (%) (1 µM)": 87},
      {"smiles": "Cc1nc(NC(=O)C2=C(O)C3(CCC3)N(C)N(Cc3cccc(F)c3F)C2=O)ccc1Br", "note": "[Example 259]", "Rate of uptake inhibition (%) (1 µM)": 52},
      {"smiles": "CN1N(Cc2cccc(F)c2F)C(=O)C(C(=O)Nc2ccc(C(F)(F)F)cc2-c2cc(C(F)(F)F)ncn2)=C(O)C12CCCC2", "note": "[Example 260]", "Rate of uptake inhibition (%) (1 µM)": 70},
      {"smiles": "CN1N(Cc2cccc(F)c2F)C(=O)C(C(=O)Nc2ccc(Cl)cc2-c2cc(C(F)(F)F)ncn2)=C(O)C12CCCC2", "note": "[Example 261]", "Rate of uptake inhibition (%) (1 µM)": 77},
      {"smiles": "Cc1nc(NC(=O)C2=C(O)C3(CCCC3)N(C)N(Cc3cccc(F)c3F)C2=O)ccc1Br", "note": "[Example 262]", "Rate of uptake inhibition (%) (1 µM)": 43},
      {"smiles": "CN1N(Cc2cccc(F)c2F)C(=O)C(C(=O)Nc2ccc(Br)c(C(F)(F)F)n2)=C(O)C12CCCC2", "note": "[Example 263]", "Rate of uptake inhibition (%) (1 µM)": 66},
      {"smiles": "CN1[C@@H](C(C)(C)C)C(O)=C(C(=O)Nc2ccc(Cl)cc2-c2cc(C(F)(F)F)ncn2)C(=O)N1Cc1ccc(OCCN2CCOCC2)c(F)c1F", "note": "[Example 265, (3S)-3-tert-Butyl-N-[4-chloro-2-[6-(trinuoromethyl)pyrimidin-4-yl]phenyl]-1-[[2,3-difluoro-4-(2-morpholin-4-ylethoxy)phenyl]methyl]-4-hydroxy-2-methyl-6-oxo-3H-pyridazine-5-carboxamide]", "Rate of uptake inhibition (%) (1 µM)": 52},
      {"smiles": "CN1[C@@H](C(C)(C)C)C(O)=C(C(=O)Nc2ccc(C(F)(F)F)cc2-c2ccc(C(F)(F)F)nc2)C(=O)N1Cc1ccc(OCCN2CCOCC2)c(F)c1F", "note": "[Example 266]", "Rate of uptake inhibition (%) (1 µM)": 62},
      {"smiles": "CSc1ccc(-c2cc(C(F)(F)F)ccc2NC(=O)C2=C(O)[C@H](C(C)(C)C)N(C)N(Cc3ccc(OCCN4CCOCC4)c(F)c3F)C2=O)cn1", "note": "[Example 268]", "Rate of uptake inhibition (%) (1 µM)": 63},
      {"smiles": "CN1[C@@H](C(C)(C)C)C(O)=C(C(=O)Nc2ccc(C(F)(F)F)cc2-c2ccnc(C#N)c2)C(=O)N1Cc1ccc(OCCN2CCOCC2)c(F)c1F", "note": "[Example 271]", "Rate of uptake inhibition (%) (1 µM)": 60},
      {"smiles": "CN1[C@@H](C(C)(C)C)C(O)=C(C(=O)Nc2ccc(Cl)cc2-c2cc(C#N)ncn2)C(=O)N1Cc1ccc(OCCN2CCOCC2)c(F)c1F", "note": "[Example 272]", "Rate of uptake inhibition (%) (1 µM)": 43},
      {"smiles": "CN1[C@@H](C(C)(C)C)C(O)=C(C(=O)Nc2cnc(C(F)(F)F)nc2-c2ccc(C(F)(F)F)nc2)C(=O)N1Cc1ccc(OCCN2CCOCC2)c(F)c1F", "note": "[Example 273]", "Rate of uptake inhibition (%) (1 µM)": 41},
      {"smiles": "Cc1c(C#N)ncnc1-c1cc(Cl)ccc1NC(=O)C1=C(O)[C@H](C(C)(C)C)N(C)N(Cc2ccc(OCCN3CCOCC3)c(F)c2F)C1=O", "note": "[Example 274]", "Rate of uptake inhibition (%) (1 µM)": 43},
      {"smiles": "Cc1c(Cl)ncnc1-c1cc(Cl)ccc1NC(=O)C1=C(O)[C@H](C(C)(C)C)N(C)N(Cc2ccc(OCCN3CCOCC3)c(F)c2F)C1=O", "note": "[Example 275]", "Rate of uptake inhibition (%) (1 µM)": 42},
      {"smiles": "Cc1c(Cl)ncnc1-c1cc(C(F)(F)F)ccc1NC(=O)C1=C(O)[C@H](C(C)(C)C)N(C)N(Cc2ccc(OCCN3CCOCC3)c(F)c2F)C1=O", "note": "[Example 276]", "Rate of uptake inhibition (%) (1 µM)": 68},
      {"smiles": "CN1[C@@H](C(C)(C)C)C(O)=C(C(=O)Nc2ccc(C(F)(F)F)cc2C(F)(F)F)C(=O)N1Cc1ccc(OCCN2CCOCC2)c(F)c1F", "note": "[Example 277]", "Rate of uptake inhibition (%) (1 µM)": 41},
      {"smiles": "Cc1c(-c2cc(C(F)(F)F)ccc2NC(=O)C2=C(O)[C@H](C(C)(C)C)N(C)N(Cc3ccc(OCCN4CCOCC4)c(F)c3F)C2=O)ncnc1C(F)(F)F", "note": "[Example 278]", "Rate of uptake inhibition (%) (1 µM)": 69},
      {"smiles": "CC(C)[C@H]1C(O)=C(C(=O)Nc2ccc(C(F)(F)F)cc2-c2ccc(C(F)(F)F)nc2)C(=O)N(Cc2ccc(OCCN3CCOCC3)c(F)c2F)N1C", "note": "[Example 280]", "Rate of uptake inhibition (%) (1 µM)": 50},
      {"smiles": "CC(C)[C@H]1C(O)=C(C(=O)Nc2ccc(Cl)cc2-c2ccc(C(F)(F)F)nc2)C(=O)N(Cc2ccc(OCCN3CCOCC3)c(F)c2F)N1C", "note": "[Example 281]", "Rate of uptake inhibition (%) (1 µM)": 41}
    ]}
  ]
}
